Values quoted from earlier work, collected in patent US20250057824A1, “NOSE-TO-BRAIN DELIVERY FORMULATION OF NIMODIPINE, PREPARATION AND USE” (Nasal-Phyto (Shanghai) Pharmaceutical Technology Co., Ltd., priority 2023, published 2025).
Values after ≈ are worked out from the molar mass of the structure shown.

SMILES: COCCOC(=O)C1=C(C)NC(C)=C(C(=O)OC(C)C)C1c1cccc([N+](=O)[O-])c1 (stereo not shown) [Nimodipine]
- solubility in water: 2 µg/mL (≈ 4.78 µM)
